Results as given in article PMC9465710, “Identification of a BAZ2A-Bromodomain Hit Compound by Fragment Growing” (ACS Medicinal Chemistry Letters, 2022).
“And” between values parts separate entries of the source, which are not always exact repeats. Equal values may be shown once.

Tests used:
BAZ2B bromodomain = target: T1, BAZ2B bromodomain (Homo sapiens, UniProt Q9UIF8); assay: AlphaScreen competition binding assay on the BAZ2B bromodomain; details: AlphaScreen dose-response, Figure S6
T1 sequence (Q9UIF8 2060-2164 limits assumed): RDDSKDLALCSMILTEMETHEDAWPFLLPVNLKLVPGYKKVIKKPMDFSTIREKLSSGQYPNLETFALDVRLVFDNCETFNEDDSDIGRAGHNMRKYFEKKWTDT
Experimental: (§1) Trigonal crystals were obtained by co-crystallization as described in the same work. Monoclinic crystals were obtained by co-crystallization with compound 4 of reference; a back-soaking procedure was then applied by incubating the crystal in the crystallization solution without inhibitors for 36-48 hours, and subsequently exposing it to the new ligand of interest for 12-24 hours.
(§2) Diffraction data were collected at the Elettra Synchrotron Light Source (Trieste, Italy), XRD1 and XRD2 beamlines, and at the ESRF (Grenoble, France), ID30-A1 beamline. Data were processed and structures were solved as described elsewhere. BAZ2A/cmp9 data have been corrected for diffraction anisotropy with STARANISO (https://staraniso.globalphasing.org/cgi-bin/staraniso.cgi).
(§3) Data collection and refinement statistics are reported in Suppl. Tables 3-6. Electron densities (2Fo-Fc polder OMIT map) for the bound inhibitors are shown in Suppl. Fig. 7.
(§4) AlphaScreen assay was conducted as detailed in [11]. All experiments were performed at least in […]
(§5) Isothermal Titration Calorimetry
(§6) ITC experiments were performed using an MicroCal PEAQ-IT C microcalorimeter (Malvern Panalytical , UK) at 25°C with a stirring speed of 750 rpm in 20mM Tris pH 7. 8, 0. 2 M NaCl, 0. 2 mM TCEP and 0. 25% DMSO. For each experiment, one 0. […]

BAZ2A bromodomain [1] = target: T2, BAZ2A bromodomain (Homo sapiens, UniProt Q9UIF9); assay: AlphaScreen competition binding assay (BAZ2A bromodomain binding to acetylated peptide)
T2 construct: made in house
T2 sequence (Q9UIF9 1793-1897 limits assumed): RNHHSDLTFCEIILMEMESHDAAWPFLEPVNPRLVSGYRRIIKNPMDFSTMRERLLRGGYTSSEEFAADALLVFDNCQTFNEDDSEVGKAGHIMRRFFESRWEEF
Experimental: The 36 selected molecules were tested by AlphaScreen at single doses in duplicate. Six molecules (compounds 8, 9, 11, 14, 18, and 25) decreased binding of BAZ2A bromodomain to the acetylated peptide by at least 50% when tested at 500 μM. […]
AlphaScreen assay was conducted as detailed in [11]. […]

BAZ2A bromodomain [2] = target: T2, BAZ2A bromodomain; assay: Isothermal titration calorimetry (ITC); assay type: binding; details: 25°C, 0.25% DMSO, racemic mixture, read-out: equilibrium dissociation constant (KD)
Experimental: as §1, §2, §3, §4, §5, §6

## CCc1c(-c2csc(N3CCNCC3C(=O)NCCc3ccno3)n2)[nH]c(C)c1C(C)=O (stereo not drawn) [Compound 104]
BAZ2B bromodomain
  IC50: 33.5 µM
BAZ2A bromodomain [1]
  ligand efficiency (LE): 0.24 kcal/mol per heavy atom
  lipophilic ligand efficiency (LLE): 4.0
BAZ2A bromodomain [1]; AlphaScreen dose-response
  IC50: 4 ± 0.2 µM
BAZ2A bromodomain [1]; from AlphaScreen IC50
  increase in potency with respect to 47: 8 fold
BAZ2A bromodomain [2]
  Kd: 7.1 µM and 7 µM
